Measurements taken from paper PMC8308625, “Preclinical Studies in Anti-Trypanosomatidae Drug Development” (Pharmaceuticals, 2021).
Like-named read-outs stand apart in the source and are kept apart here.

What was measured:
T. brucei = assay: Growth inhibition of T. brucei bloodstream form trypomastigotes (resazurin); format: cell-based, Trypanosoma brucei brucei; conditions: read-out: EC50 ± SD T. brucei
Description: Compounds were dissolved in dimethylsulfoxide (DMSO).

L. braziliensis = conditions: read-out: EC50 ± SD L. brazils, cited from earlier work
[1] = test system: L. infantum reference strain (MHOM/BR/2002/LPC-RPV); assay: Growth inhibition of L. infantum reference strain promastigotes (resazurin); conditions: for Selectivity Index MΦ/Lin–Ref: EC50 mammalian cell line/EC50 L. infantum reference strain; for Selectivity Index MΦ/Reference: EC50 J774.1 macrophages versus L. infantum reference strain
T. cruzi = conditions: cited from earlier work
[2] = cited from earlier work
L. infantum amastigote = assay: Single dose study in the amastigote form of L. infantum; format: cell-based; conditions: Leishmania infantum, single dose 10 µM
L. amazonensis [3] = assay: Murine model of cutaneous Leishmaniasis; conditions: BALB/c mice, oral, when treatment begins (Figure 2C)
Description: For the in vivo model of cutaneous disease, 1 × 10^7 amastigote parasites of L. amazonensis PH8 were inoculated in the upper part of the left paw of the mice. […] The mice were sacrificed 30 days post-infection. The antiparasitic effect was evaluated by two methods: the weekly evolution of the diameter of the infected paw throughout the experiment (Figure 2C) and the quantification of the parasite load in the infected area at the end of the experiment (Figure 2A).
Golden hamsters (Mesocritus auratus) were used to maintain L. amazonensis infections with the parasites passage every 6 to 8 weeks. BALB/c mice (female and male) supplied by the IFFA-CREDO, Lyon, France, and bred at the Instituto de Investigaciones en Ciencias de la Salud, Asuncion, Paraguay, were inoculated in the right hind footpad with 2 × 10^6 L. amazonensis amastigotes in 100 µL PBS obtained from donor hamsters. Disease progression was monitored by the measurement of lesion diameters for 7 to 12 weeks. […] Two days before the administration of the drug, the mice were randomly divided into groups of eight. […] The animals were euthanized two weeks after cessation of treatments to assess parasitological loads in the infected footpad. […] Following incubation at 27 °C for seven days, cultures were examined with an inverted microscope (Olympus, Tokyo, Japan) at a magnification of ×400. The number of parasites per gram in the lesion was calculated by the following equation: Parasite burden = geometric mean of the number of parasites in each duplicate/(number of microscope field counted × weight of lesion × (25,000) hemocytometer correction factor) [37]. […] Comparisons of parasite suppression in the infected footpads of the untreated and drug-treated groups were performed by Student’s t-test. One-way ANOVA (as a non-parametric statistical test) was also used on ranks.

[4] = Acute oral toxicity (up and down test); conditions: mice
L. amazonensis [5] = assay: Growth inhibition of L. amazonensis promastigotes (resazurin); conditions: for Selectivity Index MΦ/L. amaz: EC50 mammalian cell line/EC50 L. amazonensis
[6] = test system: L. infantum veterinary isolate (MCAN_UY_2015_gPL8); assay: Growth inhibition of L. infantum veterinary isolate promastigotes (resazurin); conditions: for Selectivity Index MΦ/Lin–Vet: EC50 mammalian cell line/EC50 L. infantum veterinary isolate; for EC50: Leishmania infantum; for Selectivity Index MΦ/Veterinary: EC50 J774.1 macrophages versus L. infantum veterinary isolate
[7] = parameters: method as in PMID 24749923, PMID 26492824, PMID 25512408; conditions: ref [13],[14],[15]; cited from earlier work
[8] = test system: J774.1 murine macrophages; assay: Nonspecific cytotoxicity in murine macrophages (MTT); conditions: Mus musculus, J774.1, read-out: EC50 ± SD MΦ
Description: (§1) Cell viability was then assessed using the 3-(4,5-dimethylthiazol-2-yl)-2,5-diphenyltetrazolium bromide (MTT) colorimetric assay [1]. […] All assays were performed in triplicate [35].

[9] = cited from earlier work; remark: listed apart in the source
[10] = mice, up and down test, cited from earlier work
fibroblasts (NCTC929) = assay: Cytotoxicity in fibroblasts; format: cell-based; conditions: NCTC-929, read-out: EC50 ± SD Fibroblasts
Source text: Table 5 Cytotoxicity and selectivity index of reference drugs and selected molecules. | column: EC50 ± SD (µM) ^a / Fibroblasts

[11] = parameters: method as in data provided by the DNDi program, non-published; conditions: ref data provided by the DNDi program, non-published; cited from earlier work
[12] = Nonspecific cytotoxicity in murine macrophages (MTT); conditions: mouse, J774.1 murine macrophages
Description: as §1

T. b. brucei = conditions: ref Veale and Hoppe, 2018; read-out: EC50 T. b. brucei; cited from earlier work
[13] = mice, 796 150 mg/kg oral, Cyclophosphamide intraperitoneal positive control
Source text: At least two slides of the cell suspension per animal were made. The air-dried slides were stained with Giemsa stain (5% in phosphate buffer, pH 7.4) and examined at 1000× magnification. Small round or oval bodies, the size of which ranged from about 1/5 to 1/20 of the diameter of a polychromatic erythrocyte (PCE), were counted as micronuclei. A total of 1000 PCEs were scored per animal by the same observer for determining the frequencies of micronucleated polychromatic erythrocytes (MNPCEs). […] For statistical analysis, the homogeneity of variances of data was tested by the analysis of variance (ANOVA) test (p < 0.05) using the EpiInfo (3.5.1) software.

[14] = Table 4, curcuminoids, ref [14]
[15] = Table 4, curcuminoids, ref [14], read-out: EC50 ± SD T. cruzi
[16] = Table 3, thiazolidene hydrazines, ref [13],[16],[19],[23],[25]
[17] = Leishmania infantum, read-out: EC50 ± SD Lin–Ref
[18] = Table 3, thiazolidene hydrazines, ref [13],[16],[19],[23],[25], read-out: EC50 ± SD T. cruzi
[19] = read-out: EC50 ± SD Lin–Ref, Table 3, thiazolidene hydrazines, L. infantum reference strain
[20] = Leishmania infantum, read-out: EC50 L. infantum Reference
[21] = read-out: EC50 L. infantum Veterinary

O=C1C(=CC=Cc2cccs2)CCC1=CC=Cc1cccs1 [Compound 1018]
EC50 (T. brucei; Table 4, curcuminoids): 15 ± 2 µM
EC50 (L. braziliensis; [14]): 11 ± 3 µM
EC50 ([1]; read-out: EC50 ± SD Lin–Ref, Table 4, curcuminoids, L. infantum reference strain): < 0.3 µM
EC50 (T. cruzi; [15]): 0.04 ± 0.01 µM

C=CCn1c(-c2ccc(Cl)cc2)cs\c1=N/N=C/C=C/c1ccco1 [Compound 266]
AMES test, mutagenic capacity ([2]; previous works, ref [13],[16]): negative
Ames Test (mutagenicity) ([2]; ref [13],[14],[15]): no
EC50 (T. brucei; Trypanosoma brucei, Table 3, thiazolidene hydrazines): 5 ± 1 µM
inhibition at 10 µM (L. infantum amastigote): 69%
EC50 (L. braziliensis; [16]): 20 ± 2 µM
diameter of the paw (L. amazonensis [3]): begins to decrease
survival in the acute toxicity model in vivo [4]: 100%
Selectivity Index MΦ/Lin–Ref [1]: 30
EC50 [1, 17]: 2 ± 0.2 µM
Selectivity Index MΦ/L. amaz (L. amazonensis [5]): 9
EC50 (L. amazonensis [5]; Leishmania amazonensis, read-out: EC50 ± SD L. amaz): 7 ± 1 µM
Selectivity Index MΦ/Lin–Vet [6]: 7
EC50 ([6]; read-out: EC50 ± SD Lin–Vet): 9 ± 1 µM
Stability in vitro (microsomal, plasma, other solutions) [7]: high
EC50 [8]: 60 ± 6 µM
micronucleus test, genotoxicity ([9]; previous works, ref [13],[16]): not genotoxic
Micronucleus test in mice (Genotoxicity) ([9]; ref [13],[14],[15]): no
EC50 (T. cruzi; [18]): 1.6 ± 0.5 µM
EC50 (T. cruzi; amastigotes, multiple strains, ref [13],[14],[15], read-out: EC50 in vitro anti-T. cruzi, amastigotes): > 0.25 µM
acute toxicity LD50 ([10]; previously evaluated, ref [13],[16]): > 2000 mg/kg of weight
Acute oral toxicity LD50 ([10]; ref [13],[14],[15]): LD50 > 2000 mg/kg in mice
EC50 (fibroblasts (NCTC929)): 405 ± 10 µM

C=CCNC(=S)NN=CC(C)=Cc1ccco1 [Compound 909]
EC50 (T. brucei; Table 3, thiazolidene hydrazines): 19 ± 1 µM
EC50 [1, 19]: 10 µM
EC50 (T. cruzi; [18]): 6 ± 1 µM

CNc1nnc(Sc2cnn(-c3ccccc3)c(=O)c2Cl)s1 [MMV688763, 4-Chloro-5-{[5-(methylamino)-1,3,4-thiadiazol-2-yl]sulfanyl}-2-phenyl-2,3-dihydropyridazin-3-one]
pharmacokinetics [11]: pharmacokinetic problems
Selectivity Index MΦ/Reference [1]: >24
EC50 [1, 20]: 2.1 ± 0.2 µM
Selectivity Index MΦ/Veterinary [6]: >56
EC50 [6, 21]: 0.9 ± 0.1 µM
EC50 at 48 h [12]: > 50 µM

COc1cc(/C=C/C(=O)CC(=O)/C=C/c2ccc(O)c(OC)c2)ccc1O [Curcumin, reference compound]
EC50 (T. brucei; Trypanosoma brucei, Table 4, curcuminoids): 8 ± 1 µM
EC50 (L. braziliensis; [14]): 6 ± 1 µM
Selectivity Index MΦ/Lin–Ref [1]: 2
EC50 [1, 17]: 5 ± 1 µM
Selectivity Index MΦ/L. amaz (L. amazonensis [5]): 2
EC50 [8]: 10 ± 2 µM
EC50 (T. cruzi; [15]): 6 ± 1 µM

O=C(C=CC=Cc1ccccc1)C=CC=Cc1ccccc1 [Compound 797]
EC50 (T. cruzi; [15]): 11 ± 2 µM

CC1CS(=O)(=O)CCN1/N=C/c1ccc([N+](=O)[O-])o1 (centres unmarked) [Nifurtimox, reference compound]
EC50 (L. braziliensis; [16]): 6 ± 2 µM
Selectivity Index MΦ/Lin–Ref [1]: 33
EC50 [1, 17]: 6 ± 1 µM
Selectivity Index MΦ/L. amaz (L. amazonensis [5]): 33
Selectivity Index MΦ/Lin–Vet [6]: 20
EC50 ([6]; read-out: EC50 ± SD Lin–Vet): 10 ± 2 µM
EC50 [8]: 200 ± 9 µM
EC50 (T. cruzi; [18]): 7 ± 2 µM

CS(=O)(=O)c1ccc(C(=O)N(C[C@H]2CCCO2)c2nc3ccccc3s2)cc1[N+](=O)[O-] [MMV688761, N-(1,3-Benzothiazol-2-yl)-4-methylsulfonyl-3-nitro-N-[[(2R)-oxolan-2-yl]methyl]benzamide]
Selectivity Index MΦ/Reference [1]: >10
EC50 [1, 20]: 4.9 ± 0.1 µM
EC50 (T. b. brucei): 11 µM
Selectivity Index MΦ/Veterinary [6]: >13
EC50 [6, 21]: 3.9 ± 0.3 µM
EC50 at 48 h [12]: > 50 µM

O=C1C(=CC=Cc2ccccc2)CCCC1=CC=Cc1ccccc1 [Compound 800]
EC50 (T. brucei; Table 4, curcuminoids): 15 ± 1 µM
EC50 (T. cruzi; [15]): 14 µM

O=P1(N(CCCl)CCCl)NCCCO1 (centres unmarked) [Cyclophosphamide, reference compound]
Media Mn/Mouse ± SD [13]: 36 ± 2
Number EPMn (total polychromatic micronucleated erythrocytes in the 5 assays) ([13]; 5000 EPC observed): 180

O=C(C=Cc1ccsc1)C=Cc1ccsc1 [Compound 1387]
EC50 (T. brucei; Table 4, curcuminoids): 0.7 ± 0.1 µM
EC50 (T. cruzi; [15]): 16 ± 2 µM

Cc1ccc(S(=O)(=O)NN=CC=Cc2ccco2)cc1 [Compound 1369]
EC50 [1, 19]: 8 ± 2 µM
EC50 (T. cruzi; [18]): 15 ± 5 µM
